# Source: Sander's compilation of Henry's law constants (doi:10.1021/ac0604742)
# Assay: Henry solubility constant Hcp at 298.15 K (mol/(m3 Pa))
# Settings: reference: Fang et al. (2006)
row,Structure (SMILES),Henry solubility constant Hcp
1,"Clc1ccc(-c2cc(Cl)c(Cl)c(Cl)c2)cc1Cl [3,3',4,4',5-pentachlorobiphenyl]",0.1
2,"Clc1ccc(-c2ccc(Cl)c(Cl)c2)cc1Cl [3,3',4,4'-tetrachlorobiphenyl]",0.091
3,"Clc1ccc(-c2cc(Cl)c(Cl)c(Cl)c2)c(Cl)c1 [2,3',4,4',5'-pentachlorobiphenyl]",0.046
4,"Clc1ccc(-c2ccc(Cl)c(Cl)c2Cl)cc1Cl [2,3,3',4,4'-pentachlorobiphenyl]",0.18
5,"Clc1cc(-c2cc(Cl)c(Cl)c(Cl)c2Cl)cc(Cl)c1Cl [2,3,3',4,4',5,5'-heptachlorobiphenyl]",0.084
6,"Clc1ccc(-c2cc(Cl)c(Cl)c(Cl)c2Cl)cc1Cl [2,3,3',4,4',5-hexachlorobiphenyl]",0.068
7,"Clc1ccc(-c2cc(Cl)c(Cl)c(Cl)c2)cc1 [3,4,4',5-tetrachlorobiphenyl]",0.088
8,"Clc1cc(-c2ccc(Cl)c(Cl)c2Cl)cc(Cl)c1Cl [2,3,3',4,4',5'-hexachlorobiphenyl]",0.06
9,"Clc1cc(-c2cc(Cl)c(Cl)c(Cl)c2)cc(Cl)c1Cl [3,3',4,4',5,5'-hexachlorobiphenyl]",0.081
10,"Clc1ccc(-c2cc(Cl)c(Cl)cc2Cl)cc1Cl [2,3',4,4',5-pentachlorobiphenyl]",0.057
11,"Clc1cc(Cl)c(-c2cc(Cl)c(Cl)c(Cl)c2)cc1Cl [2,3',4,4',5,5'-hexachlorobiphenyl]",0.078
